Source: patent US9556200B2, “Tricyclic compound” (TAKEDA PHARMACEUTICAL COMPANY LIMITED, priority 2012, dated 2017)
Where a name gives a salt, the structure may show the parent alone.

What follows are compounds tested against serotonin 5-HT2C receptor (VSV type isoform, stably expressed in CHO cells) (Homo sapiens, UniProt P28335, I156V/I160V/N158S) (assay: cell-based). Conditions: read-out: ratio (%) relative to maximum response by 5-HT (10 μM).
Sequence of serotonin 5-HT2C receptor (VSV type isoform, stably expressed in CHO cells) (P28335 33-458 I156V/N158S/I160V limits assumed): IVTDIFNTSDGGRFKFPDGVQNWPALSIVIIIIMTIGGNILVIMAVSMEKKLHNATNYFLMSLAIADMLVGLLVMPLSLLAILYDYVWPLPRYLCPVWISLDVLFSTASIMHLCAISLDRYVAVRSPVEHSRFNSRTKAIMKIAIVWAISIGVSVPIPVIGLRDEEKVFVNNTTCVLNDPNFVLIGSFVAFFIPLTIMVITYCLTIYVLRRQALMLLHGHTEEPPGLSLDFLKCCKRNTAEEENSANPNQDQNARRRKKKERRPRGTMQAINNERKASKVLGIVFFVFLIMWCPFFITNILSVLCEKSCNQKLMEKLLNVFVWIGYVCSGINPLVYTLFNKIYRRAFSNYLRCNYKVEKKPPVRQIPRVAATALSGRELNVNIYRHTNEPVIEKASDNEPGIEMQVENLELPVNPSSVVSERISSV

SMILES | Emax [%] | Emax at 10 µM [%]
c1cc2c3c(c[nH]c3c1)CNCC2 [Example 1, 3,4,5,6-tetrahydro-1H-azepino[3,4,5-cd]indole hydrochloride] | 104 | 
c1cc2c3c(c1)NCC3CNCC2 (centres unmarked) [Example 2, 2,2a,3,4,5,6-hexahydro-1H-azepino[3,4,5-cd]indole dihydrochloride] | 107 | 
Cn1cc2c3c(cccc31)CCNC2 [Example 3, 1-methyl-3,4,5,6-tetrahydro-1H-azepino[3,4,5-cd]indole] | 106 | 
CN1CC2CNCCc3cccc1c32 (centres unmarked) [Example 4, 1-methyl-2,2a,3,4,5,6-hexahydro-1H-azepino[3,4,5-cd]indole hydrochloride] | 100 | 
CN1CC2CNCCc3ccc(Cl)c1c32 (centres unmarked) [Example 5, 9-chloro-1-methyl-2,2a,3,4,5,6-hexahydro-1H-azepino[3,4,5-cd]indole hydrochloride] | 108 | 
CN1CC2CNCCc3c(Cl)ccc1c32 (centres unmarked) [Example 6, 7-chloro-1-methyl-2,2a,3,4,5,6-hexahydro-1H-azepino[3,4,5-cd]indole hydrochloride] | 98 | 
CN1CC2CNCCc3c(Cl)cc(Cl)c1c32 (centres unmarked) [Example 7, 7,9-dichloro-1-methyl-2,2a,3,4,5,6-hexahydro-1H-azepino[3,4,5-cd]indole] | 97 | 
CN1C[C@H]2CNCCc3ccc(Cl)c1c32 [Example 8, (2aR)-9-chloro-1-methyl-2,2a,3,4,5,6-hexahydro-1H-azepino[3,4,5-cd]indole hydrochloride] | 105 | 
CN1C[C@@H]2CNCCc3ccc(Cl)c1c32 [Example 9, (2aS)-9-chloro-1-methyl-2,2a,3,4,5,6-hexahydro-1H-azepino[3,4,5-cd]indole hydrochloride] | 109 | 
Cc1ccc2c3c1N(C)CC3CNCC2 (centres unmarked) [Example 10, 1,9-dimethyl-2,2a,3,4,5,6-hexahydro-1H-azepino[3,4,5-cd]indole hydrochloride] | 100 | 
Cc1ccc2c3c1N(C)C[C@@H]3CNCC2 [Example 11, (2aS)-1,9-dimethyl-2,2a,3,4,5,6-hexahydro-1H-azepino[3,4,5-cd]indole 0.5 sulfate] | 102 | 
Cc1ccc2c3c1N(C)C[C@H]3CNCC2 [Example 12, (2aR)-1,9-dimethyl-2,2a,3,4,5,6-hexahydro-1H-azepino[3,4,5-cd]indole 0.5 sulfate] | 102 | 
CN1CC2CNCCc3c(Br)ccc1c32 (centres unmarked) [Example 13, 7-bromo-1-methyl-2,2a,3,4,5,6-hexahydro-1H-azepino[3,4,5-cd]indole hydrochloride] | 81 | 
CN1CC2CNCCc3c(Br)cc(Br)c1c32 (centres unmarked) [Example 14, 7,9-dibromo-1-methyl-2,2a,3,4,5,6-hexahydro-1H-azepino[3,4,5-cd]indole hydrochloride] |  | 87
CC(C)N1CC2CNCCc3cccc1c32 (centres unmarked) [Example 15, 1-isopropyl-2,2a,3,4,5,6-hexahydro-1H-azepino[3,4,5-cd]indole hydrochloride] | 98 | 
CC(C)N1CC2CNCCc3ccc(Cl)c1c32 (centres unmarked) [Example 16, 9-chloro-1-isopropyl-2,2a,3,4,5,6-hexahydro-1H-azepino[3,4,5-cd]indole hydrochloride] | 101 | 
CC(C)N1C[C@@H]2CNCCc3ccc(Cl)c1c32 [Example 17, (2aS)-9-chloro-1-isopropyl-2,2a,3,4,5,6-hexahydro-1H-azepino[3,4,5-cd]indole hydrochloride] | 99 | 
CC(C)N1C[C@H]2CNCCc3ccc(Cl)c1c32 [Example 18, (2aR)-9-chloro-1-isopropyl-2,2a,3,4,5,6-hexahydro-1H-azepino[3,4,5-cd]indole hydrochloride] | 105 | 
c1ccc(CN2CC3CNCCc4cccc2c43)cc1 (centres unmarked) [Example 19, 1-benzyl-2,2a,3,4,5,6-hexahydro-1H-azepino[3,4,5-cd]indole hydrochloride] | 96 | 
CC(=O)N1CC2CNCCc3cccc1c32 (centres unmarked) [Example 20, 1-(2,2a,3,4,5,6-hexahydro-1H-azepino[3,4,5-cd]indol-1-yl)ethanone hydrochloride] | 94 | 
CC(=O)N1CC2CNCCc3ccc(Cl)c1c32 (centres unmarked) [Example 21, 1-(9-chloro-2,2a,3,4,5,6-hexahydro-1H-azepino[3,4,5-cd]indol-1-yl)ethanone hydrochloride] | 109 | 

SMILES | Emax [%] | Emax at 10 µM [%]
CC(=O)N1CC2CNCCc3c(Cl)ccc1c32 (centres unmarked) [Example 22, 1-(7-chloro-2,2a,3,4,5,6-hexahydro-1H-azepino[3,4,5-cd]indol-1-yl)ethanone hydrochloride] | 105 | 
CC(=O)N1CC2CNCCc3c(Cl)cc(Cl)c1c32 (centres unmarked) [Example 23, 1-(7,9-dichloro-2,2a,3,4,5,6-hexahydro-1H-azepino[3,4,5-cd]indol-1-yl)ethanone] | 100 | 
CC(=O)N1C[C@@H]2CNCCc3ccc(Cl)c1c32 [Example 24, 1-((2aS)-9-chloro-2,2a,3,4,5,6-hexahydro-1H-azepino[3,4,5-cd]indol-1-yl)ethanone hydrochloride] | 96 | 
CC(=O)N1C[C@H]2CNCCc3ccc(Cl)c1c32 [Example 25, 1-((2aR)-9-chloro-2,2a,3,4,5,6-hexahydro-1H-azepino[3,4,5-cd]indol-1-yl)ethanone hydrochloride] | 96 | 
Clc1ccc2c3c1NCC3CNCC2 (centres unmarked) [Example 26, 9-chloro-2,2a,3,4,5,6-hexahydro-1H-azepino[3,4,5-cd]indole] | 98 | 
CCN1C[C@@H]2CNCCc3ccc(Cl)c1c32 [Example 29, (2aS)-9-chloro-1-ethyl-2,2a,3,4,5,6-hexahydro-1H-azepino[3,4,5-cd]indole hydrochloride] | 93 | 
Clc1ccc2c3c1N(C1CC1)C[C@@H]3CNCC2 [Example 30, (2aS)-9-chloro-1-cyclopropyl-2,2a,3,4,5,6-hexahydro-1H-azepino[3,4,5-cd]indole] | 94 | 
c1cc2c3c(coc3c1)CNCC2 [Example 31, 3,4,5,6-tetrahydrofuro[4,3,2-ef][3]benzazepine hydrochloride] | 85 | 
c1cc2c3c(c1)OCC3CNCC2 (centres unmarked) [Example 32, 2,2a,3,4,5,6-hexahydrofuro[4,3,2-ef][3]benzazepine hydrochloride] | 97 | 
Clc1ccc2c3c1OCC3CNCC2 (centres unmarked) [Example 33, 9-chloro-2,2a,3,4,5,6-hexahydrofuro[4,3,2-ef][3]benzazepine hydrochloride] | 94 | 
CC(C)C(=O)N1CC2CNCCc3cccc1c32 (centres unmarked) [Example 34, 1-(2,2a,3,4,5,6-hexahydro-1H-azepino[3,4,5-cd]indol-1-yl)-2-methylpropan-1-one hydrochloride] | 77 | 
CC(C)C(=O)N1CC2CNCCc3c(Cl)ccc1c32 (centres unmarked) [Example 35, 1-(7-chloro-2,2a,3,4,5,6-hexahydro-1H-azepino[3,4,5-cd]indol-1-yl)-2-methylpropan-1-one hydrochloride] | 99 | 
O=C(c1ccccc1)N1CC2CNCCc3cccc1c32 (centres unmarked) [Example 36, 2,2a,3,4,5,6-hexahydro-1H-azepino[3,4,5-cd]indol-1-yl(phenyl)methanone hydrochloride] | 79 | 
O=C(c1ccccc1)N1CC2CNCCc3ccc(Cl)c1c32 (centres unmarked) [Example 37, (9-chloro-2,2a,3,4,5,6-hexahydro-1H-azepino[3,4,5-cd]indol-1-yl)(phenyl)methanone hydrochloride] | 95 | 
O=C(c1ccccc1)N1CC2CNCCc3c(Cl)ccc1c32 (centres unmarked) [Example 38, (7-chloro-2,2a,3,4,5,6-hexahydro-1H-azepino[3,4,5-cd]indol-1-yl)(phenyl)methanone hydrochloride] | 93 | 
O=C(c1ccccc1)N1CC2CNCCc3c(Cl)cc(Cl)c1c32 (centres unmarked) [Example 39, 7,9-dichloro-1-(phenylcarbonyl)-2,2a,3,4,5,6-hexahydro-1H-azepino[3,4,5-cd]indole hydrochloride] | 93 | 
CC(C)c1ccc2c3c1N(C)CC3CNCC2 (centres unmarked) [Example 40, 9-isopropyl-1-methyl-2,2a,3,4,5,6-hexahydro-1H-azepino[3,4,5-cd]indole] | 93 | 
c1cc2c3c(csc3c1)CNCC2 [Example 41, 3,4,5,6-tetrahydrothieno[4,3,2-ef][3]benzazepine hydrochloride] | 91 | 
O=S1(=O)CC2CNCCc3cccc1c32 (centres unmarked) [Example 42, 2,2a,3,4,5,6-hexahydrothieno[4,3,2-ef][3]benzazepine 1,1-dioxide hydrochloride] | 102 | 
c1cc2c3c(c1)SCC3CNCC2 (centres unmarked) [Example 43, 2,2a,3,4,5,6-hexahydrothieno[4,3,2-ef][3]benzazepine hydrochloride] | 107 | 
